Measured values from US8802597B2, “Herbicidal pyrimidines” (E I du Pont de Nemours and Company, priority 2003, dated 2014).
Like-named read-outs stand apart in the source and are kept apart here.

How the values were obtained:
Format in all cases: in vivo
[1] = test system: giant foxtail (Setaria faberii); assay: Test B pre/postemergence; conditions: Setaria faberi; for pest or weed control at 62 g/ha: 62 g ai/ha; for pest or weed control at 250 g/ha: 250 g ai/ha
How it was run: (§1)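 Scores reflect visual comparison with untreated controls, where 0 means no effect and 100 complete control. Plants stayed 13 to 15 days in the greenhouse after pre- or postemergence treatment with compounds carried in a non-phytotoxic solvent and surfactant.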

[2] = test system: lambsquarters (Chenopodium album); assay: Test B pre/postemergence; conditions: Chenopodium album, post-emergence, Postemergence
How it was run: as §1

[3] = test system: velvetleaf (Abutilon theophrasti); assay: Test B pre/postemergence; conditions: Abutilon theophrasti; for pest or weed control at 62 g/ha: 62 g ai/ha; for pest or weed control at 250 g/ha: 250 g ai/ha
How it was run: as §1

[4] = test system: morningglory (Ipomoea coccinea); assay: Test B pre/postemergence; conditions: Ipomoea; for pest or weed control at 62 g/ha: 62 g ai/ha; for pest or weed control at 250 g/ha: 250 g ai/ha
How it was run: as §1

[5] = test system: cocklebur (Xanthium strumarium); assay: Test B pre/postemergence; conditions: Xanthium strumarium; for pest or weed control at 62 g/ha: 62 g ai/ha; for pest or weed control at 250 g/ha: 250 g ai/ha
How it was run: as §1

corn (Zea mays) = assay: Test B pre/postemergence; conditions: Zea mays; for Corn plant response rating (crop injury, 0 = no effect, 100 = complete kill) at 250 g/ha: 250 g ai/ha
How it was run: as §1

[6] = test system: wheat (Triticum aestivum); assay: Test B pre/postemergence; conditions: Triticum aestivum; for plant injury at 62 g/ha: 62 g ai/ha; for plant injury at 250 g/ha: 250 g ai/ha
How it was run: as §1

[7] = test system: barnyardgrass (Echinochloa crus-galli); assay: Test B pre/postemergence; conditions: Echinochloa crus-galli; for pest or weed control at 62 g/ha: 62 g ai/ha; for pest or weed control at 250 g/ha: 250 g ai/ha
How it was run: as §1

[8] = test system: Surinam grass (Brachiaria decumbens); assay: Test B pre/postemergence; conditions: Urochloa decumbens; for pest or weed control at 62 g/ha: 62 g ai/ha; for pest or weed control at 250 g/ha: 250 g ai/ha
How it was run: as §1

[9] = test system: pigweed (Amaranthus retroflexus); assay: Test B pre/postemergence; conditions: Amaranthus retroflexus; for pest or weed control at 62 g/ha: 62 g ai/ha; for pest or weed control at 250 g/ha: 250 g ai/ha
How it was run: as §1

[10] = test system: crabgrass (Digitaria sanguinalis); assay: Test B pre/postemergence; conditions: Digitaria sanguinalis; for pest or weed control at 62 g/ha: 62 g ai/ha; for pest or weed control at 250 g/ha: 250 g ai/ha
How it was run: as §1

[11] = test system: blackgrass (Alopecurus myosuroides); assay: Test B postemergence; conditions: Alopecurus myosuroides, post-emergence
How it was run: as §1

wild oat (Avena fatua) = assay: Test B postemergence; conditions: Avena fatua, post-emergence
How it was run: as §1

[12] = pre-emergence, Preemergence, scale 0 to 100 (0 no effect, 100 complete control), read-out: Plant response rating, Wheat
[13] = pre-emergence, Preemergence, scale 0 to 100 (0 no effect, 100 complete control), read-out: Plant response rating, Barnyardgrass

CCOC(=O)c1nc(C2CC2)nc(NC(C)=O)c1Br [Compound 53]
90%: pest or weed control at 62 g/ha ([2]; 62 g ai/ha, scale 0 to 100 (0 no effect, 100 complete control), read-out: Lambsquarters plant response rating) | pest or weed control at 250 g/ha ([3]; pre-emergence, Preemergence, scale 0 to 100 (0 no effect, 100 complete control), read-out: Plant response rating, Velvetleaf) | pest or weed control at 62 g/ha ([4]; post-emergence, Postemergence, scale 0 to 100 (0 no effect, 100 complete control), read-out: Morningglory plant response rating) | pest or weed control at 250 g/ha ([4]; post-emergence, Postemergence, scale 0 to 100, read-out: Plant response rating, Morningglory) | pest or weed control at 62 g/ha ([4]; pre-emergence, Preemergence, scale 0 to 100, 0 no effect, 100 complete control, read-out: Plant response rating, Morningglory) | pest or weed control at 250 g/ha ([5]; post-emergence, Postemergence, scale 0 to 100, read-out: Plant response rating, Cocklebur) | pest or weed control at 250 g/ha ([7]; post-emergence, Postemergence, scale 0 to 100, read-out: Plant response rating, Barnyardgrass)
30%: pest or weed control at 62 g/ha ([1]; post-emergence, Postemergence, scale 0 to 100 (0 no effect, 100 complete control), read-out: Foxtail, Giant plant response rating) | plant injury at 62 g/ha ([6]; post-emergence, Postemergence, scale 0 to 100 (0 no effect, 100 complete control), read-out: Wheat plant response rating) | pest or weed control at 250 g/ha ([8]; pre-emergence, Preemergence, scale 0 to 100 (0 no effect, 100 complete control), read-out: Plant response rating, Surinam Grass) | pest or weed control at 250 g/ha ([10]; post-emergence, Postemergence, scale 0 to 100, read-out: Plant response rating, Crabgrass) | pest or weed control at 62 g/ha (wild oat (Avena fatua); 62 g ai/ha, scale 0 to 100 (0 no effect, 100 complete control), read-out: Oat, Wild plant response rating)
60%: pest or weed control at 62 g/ha ([5]; pre-emergence, Preemergence, scale 0 to 100, 0 no effect, 100 complete control, read-out: Plant response rating, Cocklebur) | plant injury at 250 g/ha ([6]; post-emergence, Postemergence, scale 0 to 100, read-out: Plant response rating, Wheat) | pest or weed control at 62 g/ha ([9]; pre-emergence, Preemergence, scale 0 to 100, 0 no effect, 100 complete control, read-out: Plant response rating, Pigweed) | pest or weed control at 250 g/ha ([11]; 250 g ai/ha, scale 0 to 100, read-out: Plant response rating, Blackgrass) | pest or weed control at 250 g/ha (wild oat (Avena fatua); 250 g ai/ha, scale 0 to 100, read-out: Plant response rating, Oat, Wild)
40%: pest or weed control at 62 g/ha ([3]; post-emergence, Postemergence, scale 0 to 100 (0 no effect, 100 complete control), read-out: Velvetleaf plant response rating) | plant injury at 250 g/ha [6, 12]
80%: pest or weed control at 250 g/ha ([3]; post-emergence, Postemergence, scale 0 to 100, read-out: Plant response rating, Velvetleaf) | pest or weed control at 62 g/ha ([7]; post-emergence, Postemergence, scale 0 to 100 (0 no effect, 100 complete control), read-out: Barnyardgrass plant response rating) | pest or weed control at 62 g/ha ([9]; post-emergence, Postemergence, scale 0 to 100 (0 no effect, 100 complete control), read-out: Pigweed plant response rating)
70%: pest or weed control at 250 g/ha ([1]; post-emergence, Postemergence, scale 0 to 100, read-out: Plant response rating, Foxtail, Giant) | Corn plant response rating (crop injury, 0 = no effect, 100 = complete kill) at 250 g/ha (corn (Zea mays); post-emergence, Postemergence, scale 0 to 100) | pest or weed control at 250 g/ha [7, 13]
100%: pest or weed control at 250 g/ha ([2]; 250 g ai/ha, scale 0 to 100, read-out: Plant response rating, Lambsquarters) | pest or weed control at 250 g/ha ([4]; pre-emergence, Preemergence, scale 0 to 100 (0 no effect, 100 complete control), read-out: Plant response rating, Morningglory) | pest or weed control at 250 g/ha ([5]; pre-emergence, Preemergence, scale 0 to 100 (0 no effect, 100 complete control), read-out: Plant response rating, Cocklebur) | pest or weed control at 250 g/ha ([9]; post-emergence, Postemergence, scale 0 to 100, read-out: Plant response rating, Pigweed) | pest or weed control at 250 g/ha ([9]; pre-emergence, Preemergence, scale 0 to 100 (0 no effect, 100 complete control), read-out: Plant response rating, Pigweed)
0%: pest or weed control at 62 g/ha ([1]; pre-emergence, Preemergence, scale 0 to 100, 0 no effect, 100 complete control, read-out: Plant response rating, Foxtail, Giant) | plant injury at 62 g/ha (corn (Zea mays); post-emergence, Postemergence, 62 g ai/ha, scale 0 to 100 (0 no effect, 100 complete control), read-out: Corn plant response rating) | Corn plant response rating (crop injury, 0 = no effect, 100 = complete kill) at 62 g/ha (corn (Zea mays); pre-emergence, Preemergence, 62 g ai/ha, scale 0 to 100, 0 no effect, 100 complete control) | Corn plant response rating (crop injury, 0 = no effect, 100 = complete kill) at 250 g/ha (corn (Zea mays); pre-emergence, Preemergence, scale 0 to 100 (0 no effect, 100 complete control)) | plant injury at 62 g/ha [6, 12] | pest or weed control at 62 g/ha [7, 13] | pest or weed control at 62 g/ha ([8]; pre-emergence, Preemergence, scale 0 to 100, 0 no effect, 100 complete control, read-out: Plant response rating, Surinam Grass) | pest or weed control at 62 g/ha ([10]; post-emergence, Postemergence, scale 0 to 100 (0 no effect, 100 complete control), read-out: Crabgrass plant response rating) | pest or weed control at 62 g/ha ([10]; pre-emergence, Preemergence, scale 0 to 100, 0 no effect, 100 complete control, read-out: Plant response rating, Crabgrass)
10%: pest or weed control at 62 g/ha ([8]; post-emergence, Postemergence, scale 0 to 100 (0 no effect, 100 complete control), read-out: Surinam Grass plant response rating)
20%: pest or weed control at 62 g/ha ([3]; pre-emergence, Preemergence, scale 0 to 100, 0 no effect, 100 complete control, read-out: Plant response rating, Velvetleaf) | pest or weed control at 62 g/ha ([11]; 62 g ai/ha, scale 0 to 100 (0 no effect, 100 complete control), read-out: Blackgrass plant response rating)
50%: pest or weed control at 250 g/ha ([1]; pre-emergence, Preemergence, scale 0 to 100 (0 no effect, 100 complete control), read-out: Plant response rating, Foxtail, Giant) | pest or weed control at 62 g/ha ([5]; post-emergence, Postemergence, scale 0 to 100 (0 no effect, 100 complete control), read-out: Cocklebur plant response rating) | pest or weed control at 250 g/ha ([8]; post-emergence, Postemergence, scale 0 to 100, read-out: Plant response rating, Surinam Grass) | pest or weed control at 250 g/ha ([10]; pre-emergence, Preemergence, scale 0 to 100 (0 no effect, 100 complete control), read-out: Plant response rating, Crabgrass)
